From publication PMC7274485, “A symbiotic bacterium of shipworms produces a compound with broad spectrum anti-apicomplexan activity” (PLoS Pathogens, 2020)
pEC50: −log10 of the molar value. Read-outs that look alike come from different tables or passages of the source.

Key:
Plasmodium falciparum = experiment: P. falciparum-infected erythrocyte proliferation, SYBR green incorporation; type: cell-based; settings: Plasmodium falciparum, Erythrocyte
Source text: The maintenance of Plasmodium falciparum cultures and conducting of in vitro inhibitor response assays have been previously described.

[1] = test system: intracellular T. gondii RH strain; experiment: Immunofluorescence assay (anti-SAG1) of T. gondii-infected HFF cells; type: cell-based, Toxoplasma gondii; settings: RH strain in HFF; 60 nM trtE for 24 hours (Fig 2B)
Source text: For our initial study, we chose to look for anti-apicomplexan compounds in Teredinibacter turnerae. T. turnerae is a gill symbiotic bacterium common to many species of shipworms. We grew two strains of T. turnerae, T7901 [1] and T7902 [24], in shipworm bacterial media (SBM), pelleted the cells and tested the culture supernatants for activity against T. gondii. We chose T. gondii, a ubiquitous coccidian parasite, as a target parasite because it represents a significant human and animal pathogen, it is easily propagated in vitro and is amenable to genetic manipulation. T. gondii is often used as a model for other, more challenging apicomplexans. […] Parasites were evaluated after 24 hours of treatment by immunofluorescence (IFA) microscopy with rabbit antibody to the T. gondii surface antigen, SAG1 [27]. […]
For all IFAs, the investigator reading the slides and collecting images was blind to the sample treatment. […] 24 hours post treatment, infected cells were fixed with methanol, and parasites detected with rabbit anti-SAG1 antibody for T. gondii or rabbit anti-gp15 for C. parvum as we have described previously. […] This CE11 line is transiently transfected with a plasmid that expresses nanoluciferase from a B. divergens promoter and green fluorescence protein-blasticidin (gfp-bsd) from the selection cassette. […]

Gram positive bacteria = settings: at μM concentrations; cited from earlier work

CC1CCC=CC=CCCC(O)CC(=O)CC2CCC(C)C3(O2)O[B-]24OC(C(=O)O1)C1(OC(CCC1C)CC(=O)CC(O)CCC=CC=CCCC(C)OC(=O)C3O2)O4 (stereo not shown) [trtE, tartrolon E]
pEC50 (Plasmodium falciparum; Table 1, rounded, read-out: EC50 against P. falciparum (Table 1)): 10.00 | pEC50 (Plasmodium falciparum; infected erythrocytes, 72 hours, read-out: EC50 against P. falciparum): 9.98 | Effect of purified trtE on intracellular T. gondii (IFA) [1]: inhibited intracellular T. gondii growth | Activity of trtE against Gram positive bacteria (Gram positive bacteria): active
